Where a name gives a salt, the structure may show the parent alone.
Assay: collision cross section in nitrogen (drift tube, single-field); higher = larger gas-phase ion size
[1] = ion type: [M+H], ion source: APCI, ion mode: Positive
[2] = ion type: [M+H], ion source: ESI, ion mode: Positive
[3] = ion type: [M+Na], ion source: ESI, ion mode: Positive
[4] = ion type: [M-H], ion source: ESI, ion mode: Negative
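Note: chemical standards at 10 µM analysed by drift tube IMS-QTOF MS in about 3.95 torr nitrogen, mean of duplicate injections differing ≤1%, mass error below 10 ppm.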

Compound	collision cross section in nitrogen [1]	collision cross section in nitrogen [2]	collision cross section in nitrogen [3]	collision cross section in nitrogen [4]	collision cross section in nitrogen (ion type: [M+], ion source: APCI, ion mode: Positive)
CCC1COC(Cn2cncn2)(c2ccc(Cl)cc2Cl)O1 (stereo unspecified) [Etaconazole]	175.4 Å²	174.1 Å²	189.3 Å²	–	–
CCOc1nc(NC)nc(NC(=O)NS(=O)(=O)c2ccccc2C(=O)OC)n1 [Ethametsulfuron-methyl]	–	197.6 Å²	–	196 Å²	–
CCSCc1ccccc1OC(=O)NC [Ethiofencarb]	–	–	153.7 Å²	–	–
CCOP(=S)(OCC)SCSP(=S)(OCC)OCC [Ethion]	–	–	182.3 Å²	–	–
CCCCc1c(C)nc(NCC)nc1O [Ethirimol]	152.1 Å²	152 Å²	167.3 Å²	155.2 Å²	–
C#C[C@]1(O)CC[C@H]2[C@@H]3CCC4=CC(=O)CC[C@]4(C)[C@H]3CC[C@@]21C [Ethisterone]	180.2 Å²	–	204.6 Å²	–	–
CCCSP(=O)(OCC)SCCC [Ethoprop]	151.3 Å²	151.5 Å²	169.5 Å²	–	–
CCOC(=O)c1sc(N)nc1C(F)(F)F [Ethyl 2-amino-4-(trifluoromethyl)-1,3-thiazole-5-carboxylate]	155.3 Å²	146.4 Å²	–	140.9 Å²	–
CCCCN(CCC(=O)OCC)C(C)=O [Ethyl 3-(N-butylacetamido)propionate]	149.3 Å²	–	162 Å²	–	–
CCOC(=O)NCCC[Si](OCC)(OCC)OCC [Ethyl [3-(triethoxysilyl)propyl]carbamate]	–	–	171.4 Å²	–	–
CCCCCCCCCC(=O)OCC [Ethyl decanoate]	–	–	–	154.6 Å²	–
CCN(CCO)CCO [Ethyl diethanolamine]	125.6 Å²	125.8 Å²	–	–	–
CCCCCCCCCCCC(=O)OCC [Ethyl dodecanoate]	–	–	–	162.3 Å²	–
CCCCCCCCCCCCCCCC(=O)OCC [Ethyl hexadecanoate]	–	–	–	177.9 Å²	–
CCCCCCCC(=O)OCC [Ethyl octanoate]	–	–	–	149.5 Å²	–
CCCCCCCCCCCCCC(=O)OCC [Ethyl tetradecanoate]	–	–	–	169.8 Å²	–
CS(=O)(=O)OCCOS(C)(=O)=O [Ethylene dimethanesulfonate]	–	–	144.8 Å²	–	–
C(COCC1CO1)OCC1CO1 (stereo unspecified) [Ethylene glycol diglycidyl ether]	–	–	135.8 Å²	–	–
CCOc1ccc(C(C)(C)COCc2cccc(Oc3ccccc3)c2)cc1 [Etofenprox]	–	–	191 Å²	–	–
COc1cc([C@@H]2c3cc4c(cc3[C@@H](O[C@@H]3O[C@@H]5CO[C@@H](C)O[C@H]5[C@H](O)[C@H]3O)[C@H]3COC(=O)[C@H]23)OCO4)cc(OC)c1O [Etoposide]	–	–	249.8 Å²	239.5 Å²	–
CCOc1cc(C(C)(C)C)ccc1C1COC(c2c(F)cccc2F)=N1 (stereo unspecified) [Etoxazole]	186.3 Å²	186.5 Å²	196 Å²	–	186.5 Å²
C=CCc1ccc(OC(=O)Cc2ccccc2)c(OC)c1 [Eugenyl phenylacetate]	–	–	175.7 Å²	–	–
CCN(Cc1cccc(S(=O)(=O)O)c1)c1ccc(C(=C2C=CC(=[N+](CC)Cc3cccc(S(=O)(=O)O)c3)C=C2)c2ccccc2S(=O)(=O)[O-])cc1 [FD&C Blue No. 1]	–	253.6 Å²	–	257.6 Å²	–
CCN(Cc1cccc(S(=O)(=O)O)c1)c1ccc(C(=C2C=CC(=[N+](CC)Cc3cccc(S(=O)(=O)[O-])c3)C=C2)c2ccccc2)cc1 [FD&C Green No. 1]	–	254.3 Å²	261.8 Å²	261.9 Å²	–
CCN(Cc1cccc(S(=O)(=O)O)c1)c1ccc(C(=C2C=CC(=[N+](CC)Cc3cccc(S(=O)(=O)O)c3)C=C2)c2ccc(O)cc2S(=O)(=O)[O-])cc1 [FD&C Green No. 3]	–	259 Å²	260.8 Å²	260.3 Å²	–
O=C1OC2(c3ccccc31)c1cc(I)c(O)c(I)c1Oc1c2cc(I)c(O)c1I [FD&C Red 3]	211.7 Å²	211.4 Å²	–	217.9 Å²	–
Cc1cc(C)c(S(=O)(=O)O)cc1N=Nc1cc(S(=O)(=O)O)c2ccccc2c1O [FD&C Red 4]	–	–	–	208.6 Å²	–
NC(N)=Nc1nc(CSCCC(N)=NS(N)(=O)=O)cs1 [Famotidine]	168.7 Å²	168.9 Å²	174.3 Å²	169.4 Å²	–
CC1(c2ccc(Oc3ccccc3)cc2)OC(=O)N(Nc2ccccc2)C1=O (stereo unspecified) [Famoxadone]	–	–	210.6 Å²	195.7 Å²	–
COP(=S)(OC)Oc1ccc(S(=O)(=O)N(C)C)cc1 [Famphur]	174 Å²	–	173.8 Å²	–	–

More lines, main results first:

collision cross section in nitrogen [1]	collision cross section in nitrogen [2]	collision cross section in nitrogen [3]	collision cross section in nitrogen [4]	Compound	collision cross section in nitrogen (ion type: [M+], ion source: APCI, ion mode: Positive)
137.5 Å²	–	–	135.2 Å²	CCc1cc(C(N)=S)ccn1 [Ethionamide]	–
153.1 Å²	153.2 Å²	–	–	CCOc1ccc2c(c1)C(C)=CC(C)(C)N2 [Ethoxyquin]	–
–	–	180.6 Å²	–	CCOC(=O)C(C#N)=C(c1ccccc1)c1ccccc1 [Ethyl 2-cyano-3,3-diphenylacrylate]	–
–	–	–	137.7 Å²	CCOC(=O)c1cccc(O)c1 [Ethyl 3-hydroxybenzoate]	–
–	169.5 Å²	187.8 Å²	–	CCOC(=O)C1=NOC(c2ccccc2)(c2ccccc2)C1 [Ethyl 5,5-diphenyl-2-isoxazoline-3-carboxylate]	–
154.1 Å²	154.5 Å²	164.9 Å²	155.5 Å²	CCOC(=O)C1=NN(c2ccccc2)C(=O)C1 [Ethyl 5-oxo-1-phenyl-4,5-dihydro-1H-pyrazole-3-carboxylate]	–
–	–	155.9 Å²	–	CCOC(=O)CC(=O)c1ccccc1 [Ethyl benzoylacetate]	–
–	–	189.7 Å²	–	O=C(OCCOCCOCCOC(=O)c1ccccc1)c1ccccc1 [Ethylenebis(oxyethylene) dibenzoate]	–
–	–	–	136.7 Å²	CCOC(=O)c1ccc(O)cc1 [Ethylparaben]	–
–	–	–	151 Å²	CCC(C(=O)NC(N)=O)c1ccccc1 (stereo unspecified) [Ethylphenylacetylurea]	–
–	–	–	203.1 Å²	O=S(=O)(O)c1ccc(N=Nc2c(O)ccc3cc(S(=O)(=O)O)ccc23)cc1 [FD&C Yellow 6]	–
175.1 Å²	174.8 Å²	–	–	Cc1[nH]cnc1C[C@H]1CCc2c(C)c3ccccc3n2C1=O [Fabesetron hydrochloride]	–
–	157.3 Å²	–	–	N#Cc1ccc(C2CCCc3cncn32)cc1 (stereo unspecified) [Fadrozole]	–
–	–	216.3 Å²	204.7 Å²	CCc1cc(C2=C(C(=O)O)N(c3ccccc3C(F)(F)F)S(=O)(=O)c3ccccc32)cc2c1OCO2 [Fandosentan potassium salt]	–

Source: the supplement of paper PMC12317010
